Patent US10852272B2, “Devices and methods using pore size modulation for detecting analytes in a fluid sample” (The Regents of the University of California, priority 2014, dated 2020)

Legend:
[1] = Dissolution (decrosslinking) kinetics of labile crosslinkers under the dissolution treatment (applied stimulus); type: physicochemical; details: under the dissolution treatment listed per crosslinker (periodic acid, reducing agent, base or acid)
Text: Certain properties of labile crosslinkers are described in the table below.

[2] = Half-life of DK as a function of pH; type: physicochemical; details: buffer
Procedure: The half-life of DK was 0.03 days at pH 5 and 6 days at pH 7.4 (at 35° C.). To qualitatively confirm decrosslinking functionality, four solutions of tris glycine were titrated to pH values of 8.3, 7.1, 2.6 and 0.07, with the addition of hydrochloric acid. A piece of DK crosslinked PAG was placed into each of the separate solutions to assess dissolution at room temperature. Gels were periodically removed and photographs were taken to qualitatively assess how much gel remained. […] The gels soaking in 8.3 pH and 7.1 pH were not visually affected even after overnight incubation. […] Experiments were performed to study composite crosslinked PAG.

SMILES | Dissolution Kinetics [1] | half-life ([2]; pH 5, 35° C.) | half-life ([2]; pH 7.4, 35° C.)
C=CC(=O)NCCSSCCNC(=O)C=C [BAC, N,N′-bis(acryloyl)cystamine] | Minutes |  | 
C=CCNC(=O)C(O)C(O)C(=O)NCC=C (centres unmarked) [DATD, N—N′-diallyltartardiamide] | Hours |  | 
C=CC(=O)NC(O)C(O)NC(=O)C=C (centres unmarked) [DHEBA, N,N′-(1,2-dihydroxyethylene)bisacrylamide] | Hours |  | 
C=CC(=O)NCCOC(C)(C)OCCNC(=O)C=C [DK, N-[2-[2-[2-(prop-2-enoylamino)ethoxy]propan-2-yloxy]ethyl]prop-2-enamide] | Minutes | 0.72 h | 144 h
C=CC(=O)NCCOCCOC(C)(C)OCCOCCNC(=O)C=C [DOK, N,N′-(7,7-dimethyl-3,6,8,11-tetraoxatridecane-1,13-diyl)diacrylamide] | Minutes |  | 
C=CC(=O)OCCOC(=O)C=C [EDA, ethylene glycol diacrylate] | Minutes |  | 
